In ChEMBL document CHEMBL1201862, “PubChem BioAssay data set” (2004):
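In this assay, cells in 96-well plates receive the compound at five concentrations for 48 hours. Endpoints are linearly interpolated between the surrounding concentrations. GI50 is the concentration that inhibits growth by half.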 Active and inactive are the calls of the source. Cut-off read from the data, not from the text of the source: active = GI50 up to about 1.1 µM and inactive = higher.

What was measured:
Test in all cases: inhibition of tumour cell growth, NCI panel, 48 h
HL-60 = test system: HL-60
HCC 2998 = test system: HCC 2998
OVCAR-3 = test system: OVCAR-3
IGROV-1 = test system: IGROV-1
SF-295 = test system: SF-295
MOLT-4 = test system: MOLT-4
NCI-H460 = test system: NCI-H460
M14 = test system: M14
SF-268 = test system: SF-268
SNB-75 = test system: SNB-75
OVCAR-8 = test system: OVCAR-8
DLD-1 = test system: DLD-1
SN12C = test system: SN12C
DMS-114 = test system: DMS-114
NCI-H522 = test system: NCI-H522
HOP-92 = test system: HOP-92
K562 = test system: K562
XF498 = test system: XF498
LXFL 529 = test system: LXFL 529
KM12 = test system: KM12
SK-OV-3 = test system: SK-OV-3
A549 = test system: A549
ACHN = test system: ACHN
SNB-19 = test system: SNB-19
U-251 = test system: U-251
SNB-78 = test system: SNB-78
HT-29 = test system: HT-29
CCRF-CEM = test system: CCRF-CEM
COLO 205 = test system: COLO 205
UACC-257 = test system: UACC-257
SK-MEL-5 = test system: SK-MEL-5
SK-MEL-2 = test system: SK-MEL-2
TK-10 = test system: TK-10
SF-539 = test system: SF-539
RXF 393 = test system: RXF 393
OVCAR-5 = test system: OVCAR-5
UACC-62 = test system: UACC-62
DMS-273 = test system: DMS-273
KM-20L2 = test system: KM-20L2
HCT-116 = test system: HCT-116
HOP-62 = test system: HOP-62
M19-MEL = test system: M19-MEL
SK-MEL-28 = test system: SK-MEL-28
UO-31 = test system: UO-31
SW-620 = test system: SW-620
A498 = test system: A498
RXF 631 = test system: RXF 631
OVCAR-4 = test system: OVCAR-4
EKVX = test system: EKVX
Malme-3M = test system: Malme-3M
HCT-15 = test system: HCT-15
NCI-H226 = test system: NCI-H226
CAKI-1 = test system: CAKI-1
NCI-H23 = test system: NCI-H23
HOP-18 = test system: HOP-18
LOX IMVI = test system: LOX IMVI
T47D = test system: T47D
PC-3 = test system: PC-3
Hs-578T = test system: Hs-578T
DU-145 = test system: DU-145
MCF7 = test system: MCF7
NCI/ADR-RES = test system: NCI/ADR-RES
BT-549 = test system: BT-549
MDA-MB-231 = test system: MDA-MB-231
SR = test system: SR
RPMI-8226 = test system: RPMI-8226
MDA-N = test system: MDA-N
MDA-MB-435 = test system: MDA-MB-435
786-0 = test system: 786-0

Measured: GI50

CCOC(=O)C(=O)NCCCN1CCOCC1
> 100 µM: HCT-15
inactive: HL-60 > 100 µM | HCC 2998 > 100 µM | OVCAR-3 > 100 µM | IGROV-1 > 100 µM | SF-295 > 100 µM | MOLT-4 > 100 µM | NCI-H460 > 100 µM | M14 > 100 µM | SF-268 > 100 µM | SNB-75 > 100 µM | OVCAR-8 > 100 µM | DLD-1 > 100 µM | SN12C > 100 µM | DMS-114 > 100 µM | NCI-H522 > 100 µM | HOP-92 > 100 µM | K562 > 100 µM | XF498 > 100 µM | LXFL 529 > 100 µM | KM12 > 100 µM | SK-OV-3 > 100 µM | A549 > 100 µM | ACHN > 100 µM | SNB-19 > 100 µM | U-251 > 100 µM | SNB-78 > 100 µM | HT-29 > 100 µM | CCRF-CEM > 100 µM | COLO 205 > 100 µM | UACC-257 > 100 µM | SK-MEL-5 > 100 µM | SK-MEL-2 > 100 µM | TK-10 > 100 µM | SF-539 > 100 µM | RXF 393 > 100 µM | OVCAR-5 > 100 µM | UACC-62 > 100 µM | DMS-273 > 100 µM | KM-20L2 > 100 µM | HCT-116 > 100 µM | HOP-62 > 100 µM | M19-MEL > 100 µM | SK-MEL-28 > 100 µM | UO-31 > 100 µM | SW-620 > 100 µM | A498 > 100 µM | RXF 631 > 100 µM | OVCAR-4 > 100 µM | EKVX > 100 µM | Malme-3M > 100 µM | NCI-H226 > 100 µM | CAKI-1 > 100 µM | NCI-H23 > 100 µM | HOP-18 > 100 µM | LOX IMVI > 100 µM

NC(=O)c1cccc([C@@H]2O[C@H](CO)[C@@H](O)[C@H]2O)c1
3.37 µM: HCT-15
inactive: HL-60 3.21 µM | HCC 2998 29.3 µM | OVCAR-3 18.9 µM | IGROV-1 37.8 µM | SF-295 9.06 µM | MOLT-4 1.23 µM | NCI-H460 48.5 µM | M14 3.2 µM | SF-268 6.81 µM | SNB-75 4.18 µM | OVCAR-8 3.79 µM | DLD-1 5.46 µM | SN12C 40.4 µM | DMS-114 15.3 µM | NCI-H522 4.14 µM | HOP-92 18.5 µM | K562 3.17 µM | T47D > 35.8 µM | XF498 2.05 µM | KM12 4.09 µM | PC-3 30.9 µM | SK-OV-3 7.21 µM | A549 27.2 µM | Hs-578T 10.5 µM | DU-145 30.6 µM | ACHN 18.2 µM | SNB-19 14 µM | U-251 11.5 µM | SNB-78 7.43 µM | MCF7 > 37.3 µM | NCI/ADR-RES 6.41 µM | HT-29 16.2 µM | CCRF-CEM 1.33 µM | COLO 205 12.2 µM | UACC-257 > 100 µM | SK-MEL-5 32.2 µM | BT-549 14.5 µM | SK-MEL-2 > 97.1 µM | TK-10 29.6 µM | MDA-MB-231 77.1 µM | SR 23.7 µM | SF-539 2.24 µM | RXF 393 8.89 µM | OVCAR-5 47.4 µM | UACC-62 29.1 µM | RPMI-8226 4.42 µM | DMS-273 7.66 µM | KM-20L2 7.36 µM | HCT-116 18.5 µM | HOP-62 8.3 µM | M19-MEL 21 µM | SK-MEL-28 6.98 µM | MDA-N 24.1 µM | UO-31 5.35 µM | SW-620 7.78 µM | A498 > 100 µM | RXF 631 12 µM | OVCAR-4 5.45 µM | MDA-MB-435 > 49.2 µM | EKVX 68.7 µM | Malme-3M > 100 µM | 786-0 3.72 µM | NCI-H226 12.5 µM | CAKI-1 18.4 µM | NCI-H23 10.3 µM | HOP-18 26.1 µM | LOX IMVI 36 µM
